From patent US20110217713A1 (On-Q-ity, priority 2010, published 2011)

System: non-small cell lung cancer patient specimens (adenocarcinomas and squamous cell carcinoma)
Experiment: International Adjuvant Lung Trial (IALT): cisplatin-based therapy vs observation, DFS/OS against IHC DNA repair biomarker Q-scores (Cox PH models)
Format: in vivo, human
Method: An immunohistochemical evaluation of DNA Repair Proteins was conducted on a large international patient specimen collection from the IALT trial (International Adjuvant Lung Trial). This clinical trial originally comprised approximately 1867 non-small cell lung cancer patient specimens (adenocarcinomas and squamous cell carcinoma) and was designed to test clinical parameters for patients receiving either cisplatin-based therapy or those considered observation. One problem with testing of biomarkers in general from clinical trials is that the patient population treatments are generally a mixture of several different treatments and combinations of such and so results may be confounded by interactions of various treatments. However, the IALT trial represents pristine treatment arms of cisplatin and observation and thus is relatively free of confounding affects due to treatment variation.
International Adjuvant Lung Cancer Trial (IALT) NSCLC FFPE patient specimens constructed on TMAs (13 total) were stained by IHC for DNA repair biomarkers: ATM, MSH2, ERCC1, p53, pMK2, PARP1, BRCA1, XPF. An average of 603 patients were analyzed for each biomarker. Tumor biomarker nuclear or cytoplasmic levels were determined using digital image user defined macros. Scores were generated based on weighted intensity and quantity of stained cells. In reference to accompanying diagrams in the Powerpoint files, please note that a wide dynamic range achieved during assay development and optimization in commercially available TMAs is translationally achieved when patients comprising this study population are stained, annotated for tumor region and scored by user-defined macros.
Previous studies have utilized standard pathologist-based scoring, thus we chose to optimize the IHC-based assessment of biomarker levels using digital pathology and weighted scoring. This endeavor is undertaken so that for a given population a continuum of scores (herein referred to as Q-scores) with a broad dynamic range may be generated by user defined macros. Here, scoring of individual tumor cells comprising each patient specimen is generated and then patients assembled into a population continuum of scores against which finer cut-points may tested and established rather than crude binning methods as employed in previous studies.
Q-score=10*(% of 10+cells)+9*(% of 9+cells)+8*(% of 8+cells)+7*(% of 7+cells) . . . 1*(% of 1+cells)
Cox PH models adjusted for relevant clinical and stratification variables were used in the univariate analyses of Disease-Free Survival (DFS) and Overall Survival (OS). Initial analyses were conducted using biomarker Q scores as continuous variables against clinical endpoint metrics.

[1] = ERCC1 model, ADENOCARCINOMA, Without variables
[2] = ERCC1 model, SQUAMOUS CELLS, With adjustment variables
[3] = ERCC1 model, SQUAMOUS CELLS, With selected variables
[4] = ERCC1 model, SQUAMOUS CELLS, Without variables
[5] = Mean Q score PMK2 nuclear (PMK2MN), Adenocarcinoma, with adjustment variables
[6] = Mean Q score PMK2 nuclear (PMK2MN), Adenocarcinoma, with selected variables
[7] = Mean Q score PMK2 nuclear (PMK2MN), Adenocarcinoma, without variables
[8] = Mean Q score PMK2 nuclear (PMK2MN), Squamous Cells, with adjustment variables
[9] = Mean Q score PMK2 nuclear (PMK2MN), Squamous Cells, with selected variables
[10] = Mean Q score PMK2 nuclear (PMK2MN), Squamous Cells, without variables
[11] = Mean Q score of PMK2 cytoplasm divided by nuclear (PMK2MCNp), Adenocarcinoma, with adjustment variables
[12] = Mean Q score of PMK2 cytoplasm divided by nuclear (PMK2MCNp), Adenocarcinoma, with selected variables
[13] = Mean Q score of PMK2 cytoplasm divided by nuclear (PMK2MCNp), Adenocarcinoma, without variables
[14] = Mean Q score sum of PMK2 cytoplasm & nuclear (PMK2MCNs), Adenocarcinoma, with adjustment variables
[15] = Mean Q score sum of PMK2 cytoplasm & nuclear (PMK2MCNs), Adenocarcinoma, with selected variables
[16] = Mean Q score sum of PMK2 cytoplasm & nuclear (PMK2MCNs), Adenocarcinoma, without variables
[17] = Mean Q score sum of PMK2 cytoplasm & nuclear (PMK2MCNs), Squamous Cells, with adjustment variables
[18] = Mean Q score sum of PMK2 cytoplasm & nuclear (PMK2MCNs), Squamous Cells, with selected variables
[19] = Mean Q score sum of PMK2 cytoplasm & nuclear (PMK2MCNs), Squamous Cells, without variables
[20] = Overall Survival, MEAN Q SCORE PMK2 CYTOPLASM, Adenocarcinoma, With adjustment variables
[21] = Overall Survival, MEAN Q SCORE PMK2 CYTOPLASM, Adenocarcinoma, With selected variables
[22] = Overall Survival, MEAN Q SCORE PMK2 CYTOPLASM, Adenocarcinoma, Without variables
[23] = Overall Survival, MEAN Q SCORE PMK2 CYTOPLASM, Squamous Cells, With selected variables
[24] = Overall Survival, MEAN Q SCORE PMK2 CYTOPLASM, Squamous Cells, Without variables
[25] = PARP1 model, SQUAMOUS CELLS, With adjustment variables
[26] = PARP1 model, SQUAMOUS CELLS, With selected variables
[27] = PARP1 model, SQUAMOUS CELLS, Without variables
[28] = XPF model, ADENOCARCINOMA, With adjustment variables
[29] = XPF model, ADENOCARCINOMA, With selected variables
[30] = XPF model, ADENOCARCINOMA, Without variables
[31] = XPF model, SQUAMOUS CELLS, With adjustment variables
[32] = XPF model, SQUAMOUS CELLS, With selected variables
[33] = XPF model, SQUAMOUS CELLS, Without variables

In the case of `N.N.[Cl][Pt][Cl]` [cisplatin], the “HazardRatio, Treatment” value (ERCC1 model, ADENOCARCINOMA, With selected variables) is reported as 0.765, the “HazardRatio, ERCC1_Treatment” value [1] is reported as 1.024 and the “HazardRatio, Treatment” value [1] is reported as 1.040. For the same compound, the “HazardRatio, ERCC1_Treatment” value [2] was 1.070, the “HazardRatio, Treatment” value [2] was 0.731 and the “HazardRatio, ERCC1_Treatment” value [3] was 1.052. The “HazardRatio, Treatment” value [3] was 0.781, the “HazardRatio, ERCC1_Treatment” value [4] was 1.054 and the “HazardRatio, Treatment” value [4] was 0.773. The “HazardRatio, PMK2MN_Treatment interaction (Disease Free Survival)” value [5] was 1.077, the “HazardRatio, Treatment (Disease Free Survival)” value [5] was 0.811 and the “HazardRatio, PMK2MN_Treatment interaction (Disease Free Survival)” value [6] was 1.084. For the same compound, the “HazardRatio, Treatment (Disease Free Survival)” value [6] was 0.802, the “HazardRatio, PMK2MN_Treatment interaction (Disease Free Survival)” value [7] was 0.956 and the “HazardRatio, Treatment (Disease Free Survival)” value [7] was 1.146. For the same compound, the “HazardRatio, PMK2MN_Treatment interaction (Disease Free Survival)” value [8] was 1.145, the “HazardRatio, Treatment (Disease Free Survival)” value [8] was 0.737 and the “HazardRatio, PMK2MN_Treatment interaction (Disease Free Survival)” value [9] was 1.145. For the same compound, the “HazardRatio, Treatment (Disease Free Survival)” value [9] was 0.750, the “HazardRatio, PMK2MN_Treatment interaction (Disease Free Survival)” value [10] was 1.111 and the “HazardRatio, Treatment (Disease Free Survival)” value [10] was 0.780. For the same compound, the “HazardRatio, PMK2MCNp_Treatment interaction (Disease Free Survival)” value [11] was 0.000, the “HazardRatio, Treatment (Disease Free Survival)” value [11] was 0.954 and the “HazardRatio, PMK2MCNp_Treatment interaction (Disease Free Survival)” value [12] was 0.000. The “HazardRatio, Treatment (Disease Free Survival)” value [12] was 0.992, the “HazardRatio, PMK2MCNp_Treatment interaction (Disease Free Survival)” value [13] was 0.000 and the “HazardRatio, Treatment (Disease Free Survival)” value [13] was 1.177. For the same compound, the “HazardRatio, Treatment (Disease Free Survival)” value (Mean Q score of PMK2 cytoplasm divided by nuclear (PMK2MCNp), Squamous Cells, with adjustment variables) was 0.612, the “HazardRatio, Treatment (Disease Free Survival)” value (Mean Q score of PMK2 cytoplasm divided by nuclear (PMK2MCNp), Squamous Cells, with selected variables) was 0.645 and the “HazardRatio, Treatment (Disease Free Survival)” value (Mean Q score of PMK2 cytoplasm divided by nuclear (PMK2MCNp), Squamous Cells, without variables) was 0.726. For the same compound, the “HazardRatio, PMK2MCNs_Treatment interaction (Disease Free Survival)” value [14] was 1.041, the “HazardRatio, Treatment (Disease Free Survival)” value [14] was 0.832 and the “HazardRatio, PMK2MCNs_Treatment interaction (Disease Free Survival)” value [15] was 1.044. The “HazardRatio, Treatment (Disease Free Survival)” value [15] was 0.828, the “HazardRatio, PMK2MCNs_Treatment interaction (Disease Free Survival)” value [16] was 0.939 and the “HazardRatio, Treatment (Disease Free Survival)” value [16] was 1.203. For the same compound, the “HazardRatio, PMK2MCNs_Treatment interaction (Disease Free Survival)” value [17] was 1.091, the “HazardRatio, Treatment (Disease Free Survival)” value [17] was 0.751 and the “HazardRatio, PMK2MCNs_Treatment interaction (Disease Free Survival)” value [18] was 1.090. For the same compound, the “HazardRatio, Treatment (Disease Free Survival)” value [18] was 0.766, the “HazardRatio, PMK2MCNs_Treatment interaction (Disease Free Survival)” value [19] was 1.066 and the “HazardRatio, Treatment (Disease Free Survival)” value [19] was 0.798. For the same compound, the “HazardRatio, PMK2MC_Treatrnent” value [20] was 1.001, the “HazardRatio, Treatment” value [20] was 0.883 and the “HazardRatio, PMK2MC_Treatment” value [21] was 0.972. The “HazardRatio, Treatment” value [21] was 0.891, the “HazardRatio, PMK2MC_Treatment” value [22] was 0.639 and the “HazardRatio, Treatment” value [22] was 1.264. For the same compound, the “HazardRatio, PMK2MC_Treatment” value [23] was 1.240, the “HazardRatio, Treatment” value [23] was 0.803 and the “HazardRatio, PMK2MC_Treatment” value [24] was 1.147. The “HazardRatio, Treatment” value [24] was 0.835, the “HazardRatio, PARP1_Treatment” value [25] was 1.082 and the “HazardRatio, Treatment” value [25] was 0.621. The “HazardRatio, PARP1_Treatment” value [26] was 1.062, the “HazardRatio, Treatment” value [26] was 0.687 and the “HazardRatio, PARP1_Treatment” value [27] was 1.107. For the same compound, the “HazardRatio, Treatment” value [27] was 0.572, the “predictive HR, p53” value (SCC, univariate Cox PH, biomarker Q score, DFS primary endpoint, OS secondary, p=0.005, 95% CI 1.035-1.212) was 1.120 and the “predictive HR, ATM” value (SCC, univariate Cox PH, biomarker Q score, DFS primary endpoint, OS secondary, p=0.010, 95% CI 1.046-1.405) was 1.212. For the same compound, the “predictive HR, MSH2” value (SCC, univariate Cox PH, biomarker Q score, DFS primary endpoint, OS secondary, p=0.012, 95% CI 1.044-1.42) was 1.218, the “HazardRatio, Treatment” value [28] was 0.628 and the “HazardRatio, XPF_Treatment” value [28] was 1.179. For the same compound, the “HazardRatio, Treatment” value [29] was 0.689, the “HazardRatio, XPF_Treatment” value [29] was 1.166 and the “HazardRatio, Treatment” value [30] was 0.900. The “HazardRatio, XPF_Treatment” value [30] was 1.080, the “HazardRatio, Treatment” value [31] was 0.813 and the “HazardRatio, XPF_Treatment” value [31] was 1.030. The “HazardRatio, Treatment” value [32] was 0.820, the “HazardRatio, XPF_Treatment” value [32] was 1.035 and the “HazardRatio, Treatment” value [33] was 0.759. The “HazardRatio, XPF_Treatment” value [33] was 1.063.
